Source: PubChem BioAssay (NCI)
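How tested: cells in 96-well plates exposed to compound for 48 hours at five concentrations. The concentration for 50% growth inhibition is given as GI50. TGI is the concentration that stops growth completely.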

What was measured:
Assay in all cases: NCI tumour cell line growth inhibition, 48 h
786-0 renal = test system: 786-0 renal
A498 renal = test system: A498 renal
A549 NSCLC = test system: A549 NSCLC
ACHN renal = test system: ACHN renal
BT-549 breast = test system: BT-549 breast
CAKI-1 renal = test system: CAKI-1 renal
COLO 205 colon = test system: COLO 205 colon
DU-145 prostate = test system: DU-145 prostate
EKVX NSCLC = test system: EKVX NSCLC
HCT-116 colon = test system: HCT-116 colon
HCT-15 colon = test system: HCT-15 colon
HL-60(TB) leukemia = test system: HL-60(TB) leukemia
HOP-62 NSCLC = test system: HOP-62 NSCLC
HS 578T breast = test system: HS 578T breast
HT29 colon = test system: HT29 colon
IGROV1 ovarian = test system: IGROV1 ovarian
K-562 leukemia = test system: K-562 leukemia
KM12 colon = test system: KM12 colon
LOX IMVI melanoma = test system: LOX IMVI melanoma
MCF7 breast = test system: MCF7 breast
MDA-MB-231 breast = test system: MDA-MB-231 breast
MDA-MB-435 = test system: MDA-MB-435
MOLT-4 leukemia = test system: MOLT-4 leukemia
NCI-H226 lung = test system: NCI-H226 lung
NCI-H23 lung = test system: NCI-H23 lung
NCI-H460 lung = test system: NCI-H460 lung
NCI-H522 lung = test system: NCI-H522 lung
NCI/ADR-RES ovarian = test system: NCI/ADR-RES ovarian
OVCAR-3 ovarian = test system: OVCAR-3 ovarian
OVCAR-5 ovarian = test system: OVCAR-5 ovarian
OVCAR-8 ovarian = test system: OVCAR-8 ovarian
PC-3 prostate = test system: PC-3 prostate
RPMI-8226 leukemia = test system: RPMI-8226 leukemia
RXF 393 renal = test system: RXF 393 renal
SF-268 CNS = test system: SF-268 CNS
SF-295 CNS = test system: SF-295 CNS
SF-539 CNS = test system: SF-539 CNS
SK-MEL-2 melanoma = test system: SK-MEL-2 melanoma
SK-MEL-28 melanoma = test system: SK-MEL-28 melanoma
SK-MEL-5 melanoma = test system: SK-MEL-5 melanoma
SN12C renal = test system: SN12C renal
SNB-19 CNS = test system: SNB-19 CNS
SNB-75 CNS = test system: SNB-75 CNS
SR leukemia = test system: SR leukemia
SW-620 colon = test system: SW-620 colon
TK-10 renal = test system: TK-10 renal
U251 CNS = test system: U251 CNS
UACC-257 melanoma = test system: UACC-257 melanoma
UACC-62 melanoma = test system: UACC-62 melanoma
UO-31 renal = test system: UO-31 renal
CCRF-CEM leukemia = test system: CCRF-CEM leukemia
HCC-2998 colon = test system: HCC-2998 colon
HOP-92 NSCLC = test system: HOP-92 NSCLC
M14 melanoma = test system: M14 melanoma
MALME-3M melanoma = test system: MALME-3M melanoma
OVCAR-4 ovarian = test system: OVCAR-4 ovarian
SK-OV-3 ovarian = test system: SK-OV-3 ovarian
T-47D breast = test system: T-47D breast

## COc1ccc(-c2c[nH]c(=S)n2-c2ccc(OC)cc2)cc1
786-0 renal
  GI50: > 50 µM
  TGI: > 50 µM
A498 renal
  GI50: > 50 µM
  TGI: > 50 µM
A549 NSCLC
  GI50: > 50 µM
  TGI: > 50 µM
ACHN renal
  GI50: > 50 µM
  TGI: > 50 µM
BT-549 breast
  GI50: > 50 µM
  TGI: > 50 µM
CAKI-1 renal
  GI50: > 50 µM
  TGI: > 50 µM
COLO 205 colon
  GI50: > 50 µM
  TGI: > 50 µM
DU-145 prostate
  GI50: > 50 µM
  TGI: > 50 µM
EKVX NSCLC
  GI50: > 50 µM
  TGI: > 50 µM
HCT-116 colon
  GI50: > 50 µM
  TGI: > 50 µM
HCT-15 colon
  GI50: > 50 µM
  TGI: > 50 µM
HL-60(TB) leukemia
  GI50: > 50 µM
  TGI: > 50 µM
HOP-62 NSCLC
  GI50: > 50 µM
  TGI: > 50 µM
HS 578T breast
  GI50: > 50 µM
  TGI: > 50 µM
HT29 colon
  GI50: > 50 µM
  TGI: > 50 µM
IGROV1 ovarian
  GI50: > 50 µM
  TGI: > 50 µM
K-562 leukemia
  GI50: > 50 µM
  TGI: > 50 µM
KM12 colon
  GI50: > 50 µM
  TGI: > 50 µM
LOX IMVI melanoma
  GI50: > 50 µM
  TGI: > 50 µM
MCF7 breast
  GI50: > 50 µM
  TGI: > 50 µM
MDA-MB-231 breast
  GI50: > 50 µM
  TGI: > 50 µM
MDA-MB-435
  GI50: > 50 µM
  TGI: > 50 µM
MOLT-4 leukemia
  GI50: > 50 µM
  TGI: > 50 µM
NCI-H226 lung
  GI50: > 50 µM
  TGI: > 50 µM
NCI-H23 lung
  GI50: > 50 µM
  TGI: > 50 µM
NCI-H460 lung
  GI50: > 50 µM
  TGI: > 50 µM
NCI-H522 lung
  GI50: > 50 µM
  TGI: > 50 µM
NCI/ADR-RES ovarian
  GI50: > 50 µM
  TGI: > 50 µM
OVCAR-3 ovarian
  GI50: > 50 µM
  TGI: > 50 µM
OVCAR-5 ovarian
  GI50: > 50 µM
  TGI: > 50 µM
OVCAR-8 ovarian
  GI50: > 50 µM
  TGI: > 50 µM
PC-3 prostate
  GI50: > 50 µM
  TGI: > 50 µM
RPMI-8226 leukemia
  GI50: 20.4 µM
  TGI: > 50 µM
RXF 393 renal
  GI50: > 50 µM
  TGI: > 50 µM
SF-268 CNS
  GI50: > 50 µM
  TGI: > 50 µM
SF-295 CNS
  GI50: > 50 µM
  TGI: > 50 µM
SF-539 CNS
  GI50: > 50 µM
  TGI: > 50 µM
SK-MEL-2 melanoma
  GI50: > 50 µM
  TGI: > 50 µM
SK-MEL-28 melanoma
  GI50: > 50 µM
  TGI: > 50 µM
SK-MEL-5 melanoma
  GI50: > 50 µM
  TGI: > 50 µM
SN12C renal
  GI50: > 50 µM
  TGI: > 50 µM
SNB-19 CNS
  GI50: > 50 µM
  TGI: > 50 µM
SNB-75 CNS
  GI50: > 50 µM
  TGI: > 50 µM
SR leukemia
  GI50: > 50 µM
  TGI: > 50 µM
SW-620 colon
  GI50: > 50 µM
  TGI: > 50 µM
TK-10 renal
  GI50: > 50 µM
  TGI: > 50 µM
U251 CNS
  GI50: > 50 µM
  TGI: > 50 µM
UACC-257 melanoma
  GI50: > 50 µM
  TGI: > 50 µM
UACC-62 melanoma
  GI50: > 50 µM
  TGI: > 50 µM
UO-31 renal
  GI50: > 50 µM
  TGI: > 50 µM

## COc1ccc2ncn(-c3cc(O[C@H](C)c4ccccc4Cl)c(C(N)=O)s3)c2c1
786-0 renal
  GI50: 0.281 µM
  TGI: 8.27 µM
A498 renal
  GI50: 0.0441 µM
  TGI: 0.57 µM
A549 NSCLC
  GI50: 0.0287 µM
  TGI: > 25 µM
ACHN renal
  GI50: 1.13 µM
  TGI: > 25 µM
BT-549 breast
  GI50: 0.448 µM
  TGI: 13.3 µM
CAKI-1 renal
  GI50: 0.189 µM
  TGI: > 25 µM
CCRF-CEM leukemia
  GI50: 0.00861 µM
  TGI: 6.35 µM
COLO 205 colon
  GI50: 0.00953 µM
  TGI: 0.436 µM
EKVX NSCLC
  GI50: 0.183 µM
  TGI: > 25 µM
HCC-2998 colon
  GI50: 0.0348 µM
  TGI: 5.51 µM
HCT-116 colon
  GI50: 0.021 µM
  TGI: 3.64 µM
HCT-15 colon
  GI50: 0.0203 µM
  TGI: > 25 µM
HL-60(TB) leukemia
  GI50: 0.00849 µM
  TGI: 2.81 µM
HOP-62 NSCLC
  GI50: 0.0192 µM
  TGI: > 25 µM
HOP-92 NSCLC
  GI50: 0.404 µM
  TGI: 8.01 µM
HS 578T breast
  GI50: 0.0763 µM
  TGI: 1.26 µM
HT29 colon
  GI50: 0.00813 µM
  TGI: 9.13 µM
IGROV1 ovarian
  GI50: 0.0284 µM
  TGI: > 25 µM
K-562 leukemia
  GI50: 0.0145 µM
  TGI: > 25 µM
KM12 colon
  GI50: 0.00907 µM
  TGI: 5.23 µM
LOX IMVI melanoma
  GI50: 0.028 µM
  TGI: 4.83 µM
M14 melanoma
  GI50: 0.0164 µM
  TGI: > 25 µM
MALME-3M melanoma
  GI50: 8.21 µM
  TGI: > 25 µM
MCF7 breast
  GI50: 0.00895 µM
  TGI: 4.17 µM
MDA-MB-231 breast
  GI50: 0.0454 µM
  TGI: > 17.3 µM
MOLT-4 leukemia
  GI50: 0.0122 µM
  TGI: > 10.5 µM
NCI-H226 lung
  GI50: 0.6 µM
  TGI: 12.7 µM
NCI-H23 lung
  GI50: 0.0197 µM
  TGI: > 18.3 µM
NCI-H460 lung
  GI50: 0.0133 µM
  TGI: 3.51 µM
NCI-H522 lung
  GI50: 0.0165 µM
  TGI: 0.221 µM
NCI/ADR-RES ovarian
  GI50: 0.0107 µM
  TGI: 2.88 µM
OVCAR-3 ovarian
  GI50: 0.00863 µM
  TGI: 1.07 µM
OVCAR-4 ovarian
  GI50: 0.869 µM
  TGI: > 25 µM
OVCAR-5 ovarian
  GI50: 0.0263 µM
  TGI: > 25 µM
OVCAR-8 ovarian
  GI50: 0.0274 µM
  TGI: 20.8 µM
PC-3 prostate
  GI50: 0.0733 µM
  TGI: > 25 µM
RPMI-8226 leukemia
  GI50: 0.016 µM
  TGI: 8.71 µM
RXF 393 renal
  GI50: 0.0105 µM
  TGI: 3.78 µM
SF-268 CNS
  GI50: 0.0316 µM
  TGI: > 25 µM
SF-295 CNS
  GI50: 0.0189 µM
  TGI: 7.05 µM
SF-539 CNS
  GI50: 0.0374 µM
  TGI: 5.54 µM
SK-MEL-28 melanoma
  GI50: 0.105 µM
  TGI: > 25 µM
SK-MEL-5 melanoma
  GI50: 0.00951 µM
  TGI: 0.54 µM
SK-OV-3 ovarian
  GI50: 0.0246 µM
  TGI: > 25 µM
SN12C renal
  GI50: 0.954 µM
  TGI: > 25 µM
SNB-19 CNS
  GI50: 0.0814 µM
  TGI: > 25 µM
SNB-75 CNS
  GI50: 0.148 µM
  TGI: > 19.7 µM
SR leukemia
  GI50: 0.012 µM
  TGI: 1.53 µM
SW-620 colon
  GI50: 0.00926 µM
  TGI: 3.69 µM
T-47D breast
  GI50: 1.07 µM
  TGI: 8.3 µM
TK-10 renal
  GI50: 1.19 µM
  TGI: 11.1 µM
U251 CNS
  GI50: 0.0234 µM
  TGI: > 25 µM
UACC-257 melanoma
  GI50: 0.444 µM
  TGI: > 22.7 µM
UACC-62 melanoma
  GI50: 0.0213 µM
  TGI: 3.99 µM
UO-31 renal
  GI50: 1.41 µM
  TGI: 17 µM
